# Measurements as given in patent publication US8263649B2, “Benzofuran type derivatives, a composition comprising the same for treating or preventing cognitive dysfunction and the use thereof” (Medifron DBT Co., Ltd., priority 2006, dated 2012).
# Test system: A 40
# Assay: ELISA of beta-amyloid in brain of transgenic mice (A 40)
# Format: in vivo, mouse
# Conditions: APPswe mice treated for 4 months; no significance statistically; FIG. 13
# Description: 13 months old dementia model male mice expressing APPswe was used in the experiment and the mice was divided into two groups, i.e., control group consisting of 2 mice and test groups consisting of 4 mice. Each mouse had been fed with the feed mixed with 3 mg of compound IIb everyday for 4 months.
# At the end of behavior test, the brain of mouse was delivered and the left hemisphere was frozen to be used as a cryo-section material. The remaining right hemisphere was used to measure the formation of beta-amyloid according to the procedure disclosed in the literature (J. Neurosci, 21(12), pp 4183-4187, 2001). […]
# The amount of beta-amyloid in the brains of mice was determined by […] ELISA method according to the manual provided from Biosource Co and ELISA kit (KHB 3482, Biosource Co.) was used in the experiment. […] The level of color reaction was determined at 450 nm using by spectrophotometer and the absolute amount of beta-amyloid in the samples was transformed by comparing with standard value. The brain of the mice treated with the compound 18b for 4 months was delivered and the amount of beta-amyloid in supernatant obtained from the dissolved brain tissue was determined according to ELISA method.
smiles,measurement,value
"COCCCc1ccc2oc(-c3ccc(OC)c(OC)c3)cc2c1 [Compound 18b, 2-(3,4-dimethoxy-phenyl)-5-(3-methoxy-propyl)-benzofuran]",amount of A 40 in brain (ELISA),slightly reduced
